Test results published in patent US11617777B2, “Cytotoxic and anti-mitotic compounds, and methods of using the same” (ZYMEWORKS BC INC., priority 2013, dated 2023).
Read-outs that look alike come from different tables or passages of the source.

How the values were obtained:
Type in all cases: cell-based
CCRF-CEM = test: Cytotoxicity on various cell lines; settings: Homo sapiens, Table 8
Source text: (§1) FIG. 1 summarizes the data for compounds A, B, C, D, and E when tested using the Human mammary carcinoma cell line HCC1954 or Human T-cell leukemia cell line Jurkat. FIGS. 2-6 show the cytotoxicity data plots for individual compounds A-E. Tables 2-6 summarize the results of additional cytotoxicity assays.
(§2) Cell lines used: Human T-cell leukemia cell line Jurkat (ATCC: TIB-152); HCC1954 (ATCC: CRL. 2338); Human Pancreatic cells lines: AsPC-1 (ATCC: CRL-1682), BxPC-3 (ATCC: CRL.1687), HPAF-II (ATCC: CRL.1997), MiaPaCa2 (ATCC: CRL.1420), PANC-1 (ATCC: CRL.1469), Capan-1 (ATCC: HTB-79), Capan-2 (ATCC: HTB-80) and the Human gastric carcinoma cell line NCI-N87 (ATCC: CRL. 5822); AML-193 (ATCC: CRL.9589), CCRF-CEM (ATCC: CCL-119), DU145 (ATCC: HTB-81), PC-3 (ATCC: CRL.1435), A-431 (ATCC: CRL.1555), HT-29 (ATCC: HTB-38), A-172 (ATCC: CRL.1620), NCI-H358 (ATCC: CRL.5807), A549 (ATCC: CCL-185), Colo-205 (ATCC: CCL-222), MDA-MB-231 (ATCC: HTB-26), OVCAR-3 (ATCC: HTB-161), OV-90 (ATCC: CRL.11732), OE19 (Sigma: 96071721), RT 112/84 (Sigma: 85061106).
(§3) On the day prior to adding compounds, HCC1954 AsPC-1, BxPC-3, HPAF-II, MiaPaCa2, PANC-1, Capan-1, Capan-2 and NCI-N87 cells were added to opaque-walled 96-well tissue culture-treated microtiter plates using complete growth medium at a density of 2500 cells/100 microlitre (uL) of medium. These adherant cell lines cells were incubated for one night at 37° C./5% CO2 to allow the cells to attach to the microtiter plate surface. On the day that compounds were added, Jurkat cells are added to separate 96-well microtiter plates at 2500 cells/100 uL using the same growth medium as HCC1954. Compound were first serially diluted using dimethyl sulfoxide, and then the prepared dilutions are added to complete growth medium at five-times the final concentration—compounds were then titrated 1:3, eight steps. A control with no compound (growth medium alone) was included on each microtiter plate in sextuplicate. The prepared compounds titrations were added (twenty-five uL/well) in triplicate. The cells and compound titrations were incubated at 37° C./5% CO2 for three nights. After the incubation, cell viability is measured using CellTiter-Glo® reagent by adding thirty uL of prepared CellTiter-Glo® to each assay well. The assay is incubated for at least twenty minutes in the dark prior to measuring emitted luminescence using a microplate luminometer (500 ms integration time). The collected relative luminescence units (RLU) are converted to % cytotoxicity using the Growth medium alone control mentioned above (% Cytotoxicity=1−[Well RLU/average medium alone control RLU]).
(§4) GraphPad Prism was used for generation of EC50 values using three parameter non-linear regression curve fitting.

DU145 = test: Cytotoxicity on various cell lines; settings: Homo sapiens, DU-145, Table 8
Source text: as §1, §2, §3, §4

A-172 = test: Cytotoxicity on various cell lines; settings: Homo sapiens, Table 8
Source text: as §1, §2, §3, §4

RT112/84 = test: Cytotoxicity on various cell lines; settings: Homo sapiens, Table 8
Source text: as §1, §2, §3, §4

PC-3 = test: Cytotoxicity on various cell lines; settings: Homo sapiens, Table 8
Source text: as §1, §2, §3, §4

OE19 = test: Cytotoxicity on various cell lines; settings: Homo sapiens, Table 8
Source text: as §1, §2, §3, §4

NCI-H358 = test: Cytotoxicity on various cell lines; settings: Homo sapiens, Table 8
Source text: as §1, §2, §3, §4

A-431 = test: Cytotoxicity on various cell lines; settings: Homo sapiens, Table 8
Source text: as §1, §2, §3, §4

AML-193 = test: Cytotoxicity on various cell lines; settings: Table 8
Source text: as §1, §2, §3, §4

Colo-205 = test: Cytotoxicity on various cell lines; settings: Homo sapiens, Table 8
Source text: as §1, §2, §3, §4

HT-29 = test: Cytotoxicity on various cell lines; settings: Homo sapiens, Table 8
Source text: as §1, §2, §3, §4

MDA-MB-231 = test: Cytotoxicity on various cell lines; settings: Homo sapiens, Table 8
Source text: as §1, §2, §3, §4

OV-90 = test: Cytotoxicity on various cell lines; settings: Homo sapiens, Table 8
Source text: as §1, §2, §3, §4

OVCAR-3 = test: Cytotoxicity on various cell lines; settings: Homo sapiens, Table 8
Source text: as §1, §2, §3, §4

Capan-2 = test: Cytotoxicity of compounds, CellTiter-Glo; settings: Homo sapiens, Table 5
Source text: as §1, §2, §3, §4

BxPC-3 = test: Cytotoxicity of compounds, CellTiter-Glo; settings: Homo sapiens
Source text: as §1, §2, §3, §4

NCI-N87 = test: Cytotoxicity of compounds, CellTiter-Glo; settings: Homo sapiens
Source text: as §1, §2, §3, §4

PANC-1 = test: Cytotoxicity of compounds, CellTiter-Glo; settings: Homo sapiens
Source text: as §1, §2, §3, §4

Capan-1 = test: Cytotoxicity of compounds, CellTiter-Glo; settings: Homo sapiens, Table 5
Source text: as §1, §2, §3, §4

MiaPaCa2 = test: Cytotoxicity of compounds, CellTiter-Glo; settings: Homo sapiens
Source text: as §1, §2, §3, §4

HPAF-II = test: Cytotoxicity of compounds, CellTiter-Glo; settings: Homo sapiens
Source text: as §1, §2, §3, §4

AsPC-1 = test: Cytotoxicity of compounds, CellTiter-Glo; settings: Homo sapiens
Source text: as §1, §2, §3, §4

HCC1954 cells = test: Cytotoxicity of compounds, CellTiter-Glo; settings: Homo sapiens, HCC1954; Table 8; HCC-1954; read-out: (EC50)
Source text: as §2, §3, §4

Q: With CN[C@H](C(=O)N[C@H](C(=O)N(C)[C@H](/C=C(\C)C(=O)NS(=O)(=O)Cc1ccccc1)C(C)C)C(C)(C)C)C(C)(C)c1ccccc1 [Compound 14, (S,E)-N-(benzylsulfonyl)-2,5-dimethyl-4-((S)—N,3,3-trimethyl-2-((S)-3-methyl-2-(methylamino)-3-phenylbutanamido)butanamido)hex-2-enamide] as the molecule, how does the EC50 (CCRF-CEM) read?
A: 0.13 nM

Q: What about the EC50 (DU145) of the same molecule?
A: 0.649 nM

Q: And the EC50 (A-172)?
A: 0.598 nM

Q: And the EC50 (RT112/84)?
A: 0.178 nM

Q: What about the EC50 (PC-3) of the same molecule?
A: 0.455 nM

Q: What about the EC50 (OE19) of the same molecule?
A: 0.21 nM

Q: What about the EC50 (NCI-H358) of the same molecule?
A: 0.311 nM

Q: What about the EC50 (A-431) of the same molecule?
A: 0.191 nM

Q: What about the EC50 (AML-193) of the same molecule?
A: 0.191 nM

Q: What about the EC50 (Colo-205) of the same molecule?
A: ~0.317 nM

Q: What about the EC50 (HT-29) of the same molecule?
A: 0.167 nM

Q: And the EC50 (MDA-MB-231)?
A: 1.24 nM

Q: What about the EC50 (OV-90) of the same molecule?
A: 0.515 nM

Q: And the EC50 (OVCAR-3)?
A: 0.09 nM

Q: What about the EC50 (Capan-2) of the same molecule?
A: 1.1 nM

Q: What about the EC50 (BxPC-3; Table 5, read-out: Cytotoxicity (EC50) BxPC-3) of the same molecule?
A: 0.0458 nM

Q: What about the EC50 (BxPC-3; Table 8, read-out: (EC50)) of the same molecule?
A: 0.196 nM

Q: And the EC50 (NCI-N87; Table 5, read-out: Cytotoxicity (EC50) NCI-N87)?
A: 0.175 nM

Q: What about the EC50 (NCI-N87; Table 8, read-out: (EC50)) of the same molecule?
A: 0.325 nM

Q: And the EC50 (PANC-1; Table 5, read-out: Cytotoxicity (EC50) PANC-1)?
A: 1.36 nM

Q: What about the EC50 (PANC-1; Table 8, read-out: (EC50)) of the same molecule?
A: 0.759 nM

Q: And the EC50 (Capan-1)?
A: 2.08 nM

Q: And the EC50 (MiaPaCa2; MIA PaCa-2, Table 5, MinPaCa2, read-out: Cytotoxicity (EC50) MinPaCa2)?
A: 0.204 nM

Q: What about the EC50 (MiaPaCa2; Table 8, Mia PaCa-2, read-out: (EC50)) of the same molecule?
A: 0.332 nM

Q: And the EC50 (HPAF-II; Table 5, read-out: Cytotoxicity (EC50) HPAF-II)?
A: 0.172 nM

Q: And the EC50 (HPAF-II; Table 8, read-out: (EC50))?
A: ~0.385 nM

Q: What about the EC50 (AsPC-1; ASPC1, Table 5, read-out: Cytotoxicity (EC50) AsPC-1) of the same molecule?
A: 0.206 nM

Q: What about the EC50 (AsPC-1; ASPC1, Table 8, read-out: (EC50)) of the same molecule?
A: 0.334 nM

Q: What about the EC50 (HCC1954 cells) of the same molecule?
A: 0.131 nM
